From publication PMC3050645 (Journal of the American Chemical Society, 2010)

molecular target: Chlorite dismutase (Cld) (Dechloromonas aromatica (nom. nud.), UniProt Q47CX0); experiment: UV/vis Soret titration, hyperbolic fit; type: binding
Sequence (Q47CX0 35-282): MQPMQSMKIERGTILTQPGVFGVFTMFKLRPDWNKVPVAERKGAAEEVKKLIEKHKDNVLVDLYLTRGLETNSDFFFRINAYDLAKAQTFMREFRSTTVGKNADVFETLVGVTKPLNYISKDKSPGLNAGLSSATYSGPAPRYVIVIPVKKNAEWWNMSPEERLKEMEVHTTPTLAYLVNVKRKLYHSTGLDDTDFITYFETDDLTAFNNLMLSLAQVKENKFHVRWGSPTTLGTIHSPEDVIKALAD

Row | Structure (SMILES) | Kd [µM]
1 | c1c[nH]cn1 [Imidazole] | 7.6 ± 0.2
2 | N#CS [KSCN] | 74 ± 2
3 | O=NO [NaNO2] | 770 ± 30
4 | c1ccncc1 [Pyridine] | 553 ± 8
